Experimental findings from the NIST ThermoML archive (doi:10.1021/acs.jced.5b01082) are described below.

For data set [1] the following is noted: 101.33 kPa, Liquid; for viscosity: Cone and plate viscometry; for mass density: Vibrating tube method.
A short description of data set [2]: wn = mass fraction of the nth substance listed. The settings on record: 100 kPa, Liquid; for viscosity: Cone and plate viscometry; for mass density: Vibrating tube method.

SMILES strings stand for the structures. Numbers after ± are expanded uncertainties.

As to `CC(CC(C)(C)C)CP(=O)([O-])CC(C)CC(C)(C)C.CCCCCCCCCCCCCC[P+](CCCCCC)(CCCCCC)CCCCCC`, the viscosity in data set [1] (298.15 K) is given as 999.6 ± 120 mPa·s; in data set [1] (310.15 K), 482.6 ± 54 mPa·s; in data set [1] (318.15 K) it was 316.7 ± 35 mPa·s. In addition, the mass density in data set [1] (298.15 K) stood at 884.09 ± 9.7 kg/m3; in data set [1] (310.15 K), 876.93 ± 9.6 kg/m3; in data set [1] (318.15 K), 872.2 ± 9.5 kg/m3.
As to `CC(CC(C)(C)C)CP(=O)([O-])CC(C)CC(C)(C)C.CCCCCCCCCCCCCC[P+](CCCCCC)(CCCCCC)CCCCCC` + O, the viscosity turned out to be 142.4 ± 15 mPa·s in data set [2] (298.15 K, w2 = 0.151); 79.66 ± 8.2 mPa·s in data set [2] (310.15 K, w2 = 0.146); 55.58 ± 5.7 mPa·s in data set [2] (318.15 K, w2 = 0.142). For the same molecule, the mass density in data set [2] (298.15 K, w2 = 0.151) was 909.07 ± 9.6 kg/m3; in data set [2] (310.15 K, w2 = 0.146) it was 900.11 ± 9.5 kg/m3; in data set [2] (318.15 K, w2 = 0.142), 893.78 ± 9.4 kg/m3.
